Reference: US20260317356A1, “SMALL MOLECULE MODULATORS OF OGG1” (AZKARRA THERAPEUTICS, INC., priority 2023, published 2026)

target: hOGG1 (Homo sapiens, UniProt O15527); assay: Biochemical fluorescence assay to measure enzymatic activity of hOGG1 (OGG1/APEX IC50); design: Protein His-hOGG1 (12-323) was prepared; His (N); host or cells: E. coli; conditions: 1 nM OGG1+2 nM APEX+6 nM dsDNA (8-oxo-dG substrate); pH 7.5; RT 40 min; read-out: OGG1/APEX IC50
Method in brief: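 His-hOGG1 (12-323, E. coli) at 1 nM with 2 nM hAPE1/APEX1, preincubated 20 min RT with compound. Then 6 nM 8-oxo-dG dsDNA substrate added, 40 min at RT in Tris pH 7.5, 100 mM KCl. TAMRA fluorescence (Ex520/Em600) converted to % inhibition vs controls; IC50 from 3-parameter fit of 10-point curve.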

Sequence of hOGG1 (O15527 12-323): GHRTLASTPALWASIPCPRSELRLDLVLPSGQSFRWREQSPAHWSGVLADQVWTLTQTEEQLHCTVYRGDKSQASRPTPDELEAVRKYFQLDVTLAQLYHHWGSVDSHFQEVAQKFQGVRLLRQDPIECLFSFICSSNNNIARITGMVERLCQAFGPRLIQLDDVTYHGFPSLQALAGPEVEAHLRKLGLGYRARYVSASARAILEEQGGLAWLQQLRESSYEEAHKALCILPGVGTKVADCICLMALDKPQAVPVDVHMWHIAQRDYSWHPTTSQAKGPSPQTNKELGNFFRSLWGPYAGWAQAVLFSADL

IC50 | Compound
100 to 1000 nM | COc1cc(NC(=O)[C@H]2CC[C@@H](N3Cc4c(Br)cc(NC(=O)Cn5ccnc5)cc4C3=O)CC2)ccc1C [Example 196, (1s,4s)-4-(6-(2-(1H-Imidazol-1-yl)acetamido)-4-bromo-1-oxoisoindolin-2-yl)-N-(3-methoxy-4-methylphenyl)cyclohexanecarboxamide]
1000 to 10000 nM | COc1cc(NC(=O)[C@H]2CC[C@@H](N3Cc4c(C)cccc4C3=O)CC2)ccc1CO [Example 145, (1s,4s)-N-(4-(Hydroxymethyl)-3-methoxyphenyl)-4-(4-methyl-1-oxoisoindolin-2-yl)cyclohexanecarboxamide]
100 to 1000 nM | COc1cc(NC(=O)[C@H]2CC[C@@H](N3Cc4c(F)cccc4NC3=O)CC2)ccc1C [Example 75, (1s,4s)-4-(5-fluoro-2-oxo-1,2-dihydroquinazolin-3(4H)-yl)-N-(3-methoxy-4-methylphenyl)cyclohexanecarboxamide]
100 to 1000 nM | COc1cc(NC(=O)[C@H]2CC[C@@H](N3Cc4c(C)cccc4C3=O)CC2)ccc1C [Example 153, (1s,4s)-N-(3-Methoxy-4-methylphenyl)-4-(4-methyl-1-oxoisoindolin-2-yl)cyclohexanecarboxamide]
> 10000 nM | COc1cc(NC(=O)[C@H]2[C@@H]3C[C@@H](N4Cc5c(Br)cccc5C4=O)C[C@@H]32)ccc1C (single isomer, unassigned) [Example 270]
100 to 1000 nM | COc1cc(NC(=O)[C@H]2CC[C@@H](N3Cc4c(Br)ccc(Cl)c4C3=O)CC2)ccc1C [Example 142, (1s,4s)-4-(4-Bromo-7-chloro-1-oxoisoindolin-2-yl)-N-(3-methoxy-4-methylphenyl)cyclohexanecarboxamide]
100 to 1000 nM | COc1cc(NC(=O)[C@H]2[C@@H]3C[C@H](N4Cc5c(Br)cccc5C4=O)C[C@@H]32)ccc1C (single isomer, unassigned) [Example 268]
> 10000 nM | Cc1ncc(NC(=O)[C@H]2CC[C@@H](N3Cc4c(C)cccc4C3=O)CC2)s1 [Example 232, (1s,4s)-4-(4-Methyl-1-oxoisoindolin-2-yl)-N-(2-methylthiazol-5-yl)cyclohexanecarboxamide]
< 100 nM | COc1cc(NC(=O)[C@H]2CC[C@@H](N3Cc4c(C)cc(O)cc4NC3=O)CC2)ccc1C [Example 77, (1s,4s)-4-(7-hydroxy-5-methyl-2-oxo-1,2-dihydroquinazolin-3(4H)-yl)-N-(3-methoxy-4-methylphenyl)cyclohexanecarboxamide]
< 100 nM | COc1cc(NC(=O)[C@H]2CC[C@@H](N3Cc4c(C)cc(CO)cc4NC3=O)CC2)ccc1C [Example 81, (1s,4s)-4-(7-(hydroxymethyl)-5-methyl-2-oxo-1,2-dihydroquinazolin-3(4H)-yl)-N-(3-methoxy-4-methylphenyl)cyclohexanecarboxamide]
> 10000 nM | COc1cc(NC(=O)[C@H]2CC[C@@H](N3Cc4cc(Br)ccc4C3=O)CC2)ccc1C [Example 170, (1s,4s)-4-(5-Bromo-1-oxoisoindolin-2-yl)-N-(3-methoxy-4-methylphenyl)cyclohexanecarboxamide]
> 10000 nM | COc1cc(NC(=O)[C@H]2CC[C@@H](N3Cc4c(cccc4C(C)C)C3=O)CC2)ccc1C [Example 158, (1s,4s)-4-(4-Isopropyl-1-oxoisoindolin-2-yl)-N-(3-methoxy-4-methylphenyl)cyclohexanecarboxamide]
100 to 1000 nM | COc1cc(NC(=O)N2CCC(N3Cc4ccccc4NC3=O)CC2)ccc1C [Example 64, N-(3-methoxy-4-methylphenyl)-4-(2-oxo-1,2-dihydroquinazolin-3(4H)-yl)piperidine-1-carboxamide]
100 to 1000 nM | COc1cc(NC(=O)[C@H]2CC[C@@H](N3Cc4c(Br)cc(NC(=O)CN5CCOCC5)cc4C3=O)CC2)ccc1C [Example 199, (1s,4s)-4-(4-Bromo-6-(2-morpholinoacetamido)-1-oxoisoindolin-2-yl)-N-(3-methoxy-4-methylphenyl)cyclohexanecarboxamide]
1000 to 10000 nM | COc1cc(NC(=O)[C@H]2CC[C@@H](N3Cc4c(CF)cccc4C3=O)CC2)ccc1C [Example 166, (1s,4s)-4-(4-(Fluoromethyl)-1-oxoisoindolin-2-yl)-N-(3-methoxy-4-methylphenyl)cyclohexanecarboxamide]
< 100 nM | COc1cc(NC(=O)[C@H]2CC[C@@H](N3Cc4c(C)cc(OCCN(C)C)cc4C3=O)CC2)ccc1C [Example 209, (1s,4s)-4-(6-(2-(Dimethylamino)ethoxy)-4-methyl-1-oxoisoindolin-2-yl)-N-(3-methoxy-4-methylphenyl)cyclohexanecarboxamide]

IC50 | Compound
> 10000 nM | Cc1cccc2c1CN([C@H]1CC[C@@H](C(=O)Nc3cccc(=O)[nH]3)CC1)C2=O [Example 248, (1s,4s)-4-(4-Methyl-1-oxoisoindolin-2-yl)-N-(6-oxo-1,6-dihydropyridin-2-yl)cyclohexanecarboxamide]
< 100 nM | Cc1cccc2c1CN([C@H]1CC[C@@H](C(=O)Nc3cc4ccccc4[nH]3)CC1)C(=O)N2 [Example 112, (1s,4s)-N-(1H-indol-2-yl)-4-(5-methyl-2-oxo-1,2-dihydroquinazolin-3(4H)-yl)cyclohexanecarboxamide]
< 100 nM | Cc1cc(NCCN(C)C)cc2c1CN([C@H]1CC[C@@H](C(=O)Nc3ccc(Cl)c(F)c3)CC1)C2=O [Example 264, (1s,4s)-N-(4-Chloro-3-fluorophenyl)-4-(6-(2-(dimethylamino)ethylamino)-4-methyl-1-oxoisoindolin-2-yl)cyclohexanecarboxamide]
100 to 1000 nM | COc1cc(NC(=O)[C@H]2CC[C@@H](N3Cc4c(C)ccc(N5CC(C)(C#N)C5)c4NC3=O)CC2)ccc1C [Example 34, (1s,4s)-4-(8-(3-Cyano-3-methylazetidin-1-yl)-5-methyl-2-oxo-1,2-dihydroquinazolin-3(4H)-yl)-N-(3-methoxy-4-methylphenyl)cyclohexanecarboxamide]
100 to 1000 nM | Cc1cccc2c1CN([C@H]1CC[C@@H](C(=O)Nc3ccc(Cl)cc3)CC1)C2=O [Example 216, (1s,4s)-N-(4-Chlorophenyl)-4-(4-methyl-1-oxoisoindolin-2-yl)cyclohexanecarboxamide]
1000 to 10000 nM | Cc1cccc2c1CN([C@H]1CC[C@@H](C(=O)Nc3ccc4oncc4c3)CC1)C(=O)N2 [Example 114, (1s,4s)-N-(benzo[d]isoxazol-5-yl)-4-(5-methyl-2-oxo-1,2-dihydroquinazolin-3(4H)-yl)cyclohexanecarboxamide]
< 100 nM | COc1cc(NC(=O)[C@H]2CC[C@@H](N3Cc4c(C)cc(OCCN(C)C)cc4NC3=O)CC2)ccc1C [Example 82, (1s,4s)-4-(7-(2-(dimethylamino)ethoxy)-5-methyl-2-oxo-1,2-dihydroquinazolin-3(4H)-yl)-N-(3-methoxy-4-methylphenyl)cyclohexanecarboxamide]
100 to 1000 nM | COc1cc(NC(=O)[C@H]2CC[C@@H](N3Cc4c(C)cc(C=O)cc4C3=O)CC2)ccc1C [Example 210, (1s,4s)-4-(6-Formyl-4-methyl-1-oxoisoindolin-2-yl)-N-(3-methoxy-4-methylphenyl)cyclohexanecarboxamide]
100 to 1000 nM | COc1cc(NC(=O)[C@H]2CC[C@@H](N3Cc4c(cccc4C(F)(F)F)NC3=O)CC2)ccc1C [Example 70, (1s,4s)-N-(3-methoxy-4-methylphenyl)-4-(2-oxo-5-(trifluoromethyl)-1,2-dihydroquinazolin-3(4H)-yl)cyclohexanecarboxamide]
> 10000 nM | COc1cc(NC(=O)[C@H]2CC[C@@H](N3Cc4c(CN)ccc(Cl)c4C3=O)CC2)ccc1C [Example 133, (1s,4s)-4-(4-(Aminomethyl)-7-chloro-1-oxoisoindolin-2-yl)-N-(3-methoxy-4-methylphenyl)cyclohexane-1-carboxamide]
> 10000 nM | COc1cc(NC(=O)[C@@H]2CC[C@@H](N3Cc4c(C)cc(NCCN(C)C)cc4C3=O)C2)ccc1C [Example 139, (1R,3R)-3-(6-((2-(Dimethylamino)ethyl)amino)-4-methyl-1-oxoisoindolin-2-yl)-N-(3-methoxy-4-methylphenyl)cyclopentanecarboxamide]
< 100 nM | COc1cc(NC(=O)[C@H]2CC[C@@H](N3Cc4c(C)cc(OCC5(O)CNC5)cc4C3=O)CC2)ccc1C [Example 138, (1s,4s)-4-(6-((3-Hydroxyazetidin-3-yl)methoxy)-4-methyl-1-oxoisoindolin-2-yl)-N-(3-methoxy-4-methylphenyl)cyclohexanecarboxamide]
100 to 1000 nM | COc1cc(NC(=O)[C@H]2CC[C@@H](N3Cc4c(Br)cc(NC(=O)CN(C)C)cc4C3=O)CC2)ccc1C [Example 202, (1s,4s)-4-(4-bromo-6-(2-(dimethylamino)acetamido)-1-oxoisoindolin-2-yl)-N-(3-methoxy-4-methylphenyl)cyclohexanecarboxamide]
100 to 1000 nM | Cc1cccc2c1CN([C@H]1CC[C@@H](C(=O)Nc3ccc4cc[nH]c4c3)CC1)C(=O)N2 [Example 113, (1s,4s)-N-(1H-indol-6-yl)-4-(5-methyl-2-oxo-1,2-dihydroquinazolin-3(4H)-yl)cyclohexanecarboxamide]
100 to 1000 nM | COc1cc(NC(=O)[C@H]2CC[C@@H](N3Cc4c(Br)cccc4NC3=O)CC2)ccc1C [Example 66, (1s,4s)-4-(5-bromo-2-oxo-1,2-dihydroquinazolin-3(4H)-yl)-N-(3-methoxy-4-methylphenyl)cyclohexanecarboxamide]
100 to 1000 nM | COc1cc(NC(=O)[C@H]2CC[C@@H](N3Cc4c(ccc(N5CCC5)c4C)NC3=O)CC2)ccc1C [Example 42, (1s,4s)-4-(6-(Azetidin-1-yl)-5-methyl-2-oxo-1,2-dihydroquinazolin-3(4H)-yl)-N-(3-methoxy-4-methylphenyl)cyclohexanecarboxamide]
